The text below walks through data of US20260308157A1, “Pyrrolopyrazine Compounds, Preparation Thereof and Therapeutic Uses Thereof” (Sanofi, priority 2023, published 2026).

Each structure is given as a SMILES string.

Assay [1] has as its target T1, activated catalytic domain of protein ERK5 (Homo sapiens, UniProt Q13164).
T1 construct: purchased CarnaBiosciences #04-146
The assay can be described thus: Cell-Free Assay of ERK5 Inhibition (Time-Resolved Forster Resonance Energy Transfer). It counts as biochemical. Conditions: ERK5 4 nM, 1 mM ATP, 1 μM biotinylated 4EBP1 peptide, 30 min at 37° C.; TR-FRET; mean where repeated. As for the experimental part: (§1) Two assays were performed to assess the ERK5 inhibitory activity of compounds of the Examples, a cell-based assay and a cell-free biochemical assay. Where repeat measurements were taken, the value reported is a mean average.
Cell-Free Assay of ERK5 Inhibition
An assay was performed to measure the capacity of each compound to inhibit ERK5 enzymatic activity. Compound potency was evaluated by Time-Resolved Forster Resonance Energy Transfer (FRET system). The activated catalytic domain of protein ERK5 (CarnaBiosciences #04-146) was mixed at 4 nM with varying concentrations of compound and incubated for 30 minutes at room temperature. A mixture of 1 mM ATP and 1 μM biotinylated synthetic peptide was added (Biosyntan GmbH). This synthetic peptide represents amino acids 30-52 of Eukaryotic translation initiation factor 4E-binding protein 1 (see, e.g., the sequence under accession No. NP_004086.1) biotinylated at the N-terminus. After 30 minutes at 37° C., the peptide phosphorylation by ERK5 was measured by addition of FRET reagents consisting of 12.5 µg/ml Streptavidin-XL665, 1 nM Anti-P-4EBP1 antibody and 300 ng/ml Anti-rabbit-K antibody. Following 90 minutes at room temperature fluorescent signals were read on the Pherastar FSX multimod detector from BMG Labtech (Exc° 340 nm, Em1 620 nm, Em2 665 nm). The IC50 values represent the concentration of compound which inhibits the measurable fluorescence signal by […] as compared to the DMSO only control.
On the technique in general: Time-resolved FRET reads energy transfer from a long-lived donor to a nearby acceptor.

A further assay concerns the target T2, Cellular ERK5 Activity (Homo sapiens, UniProt Q13164).
T2 construct: MEF2-response-element luciferase reporter (pGreenFire1)
The assay can be described thus: Inhibition of Cellular ERK5 Activity (cell-based assay, MEF2 luciferase reporter in SN12C cells). As to conditions: renal cancer cell line SN12C, doxycycline-induced MEK5DD, 0.3-10000 nM, mean where repeated. As to the method: as §1
Inhibition of Cellular ERK5 Activity
The renal cancer cell line SN12C was transduced by a lentivirus pGreenFire1 MEF2 EF1 Neo (ref TR030VA-N) from SBI using standard infection protocol. pGreenFire1 MEF2 EF1 Neo allows the expression of luciferase gene under the control of minimal promoter with MEF2 transcriptional response elements. Cells harboring the reporter construct were selected by geneticin treatment. The selected cells were then transposed by a piggyback based plasmid pCM4007 allowing the expression of constitutively activated MEK5DD under control of TREG3 promoter, a doxycycline regulated promoter. Transposed cells were selected by puromycin treatment. Upon doxycycline treatment (1 μg/ml) MEK5DD was expressed. MEK5DD activates ERK5 that phosphorylates MEF2C protein. Activated MEF2C protein can bind to its transcriptional response elements. Then the luciferase is expressed. In a 96-well plate (96F nuncleon ref137101 thermofisher), 50,000 cells were inoculated in 142.5 μl of RPMI medium containing 10% fetal calf serum, 1% glutamine, and 1 μg/ml doxycycline. After 24 hours, compounds were added in 7.5 μl culture medium (with 2% DMSO to give a final concentration of 0.1%) in order to obtain the desired concentration (0.3-10000 nM). The luciferase activity was measured using the Kit Bright Glo Luminescent Cell Assay Cat E2610 (Promega) according to the manufacturer's protocol. Luminescence was determined using 0.2 second reading/well using a Tecan SPARK. IC50 values were calculated using XLFIT5 for Microsoft Excel using method 205. The IC50 values represent the concentration of compound which inhibits the measurable luminescence signal by 50% as compared to DMSO-treated control cells.
(Reporter assays use an easily measured gene product as a stand-in for the process of interest.)

T2 sequence (Q13164 whole entry): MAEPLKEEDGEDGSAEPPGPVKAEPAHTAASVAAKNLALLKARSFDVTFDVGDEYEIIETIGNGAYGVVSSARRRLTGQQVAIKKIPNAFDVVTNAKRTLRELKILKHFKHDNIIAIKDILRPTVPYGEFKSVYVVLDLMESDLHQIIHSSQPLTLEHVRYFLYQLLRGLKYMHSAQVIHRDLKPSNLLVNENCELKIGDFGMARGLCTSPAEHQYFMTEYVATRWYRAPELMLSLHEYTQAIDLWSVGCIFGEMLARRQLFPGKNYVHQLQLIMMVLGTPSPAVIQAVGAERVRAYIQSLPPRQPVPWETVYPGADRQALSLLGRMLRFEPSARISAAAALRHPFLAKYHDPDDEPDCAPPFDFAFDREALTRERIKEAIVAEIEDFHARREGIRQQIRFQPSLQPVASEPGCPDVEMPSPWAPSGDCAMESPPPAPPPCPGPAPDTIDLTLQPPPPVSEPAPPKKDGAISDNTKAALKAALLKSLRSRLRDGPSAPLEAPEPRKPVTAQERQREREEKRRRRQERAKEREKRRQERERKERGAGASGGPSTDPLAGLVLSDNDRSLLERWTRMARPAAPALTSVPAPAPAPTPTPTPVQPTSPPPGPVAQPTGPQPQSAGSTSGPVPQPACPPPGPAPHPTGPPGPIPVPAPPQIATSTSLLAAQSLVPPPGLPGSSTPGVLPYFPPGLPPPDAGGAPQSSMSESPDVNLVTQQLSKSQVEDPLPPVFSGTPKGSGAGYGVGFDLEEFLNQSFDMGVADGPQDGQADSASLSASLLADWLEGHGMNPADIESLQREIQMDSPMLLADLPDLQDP
T1 sequence (Q13164 55-347 limits assumed): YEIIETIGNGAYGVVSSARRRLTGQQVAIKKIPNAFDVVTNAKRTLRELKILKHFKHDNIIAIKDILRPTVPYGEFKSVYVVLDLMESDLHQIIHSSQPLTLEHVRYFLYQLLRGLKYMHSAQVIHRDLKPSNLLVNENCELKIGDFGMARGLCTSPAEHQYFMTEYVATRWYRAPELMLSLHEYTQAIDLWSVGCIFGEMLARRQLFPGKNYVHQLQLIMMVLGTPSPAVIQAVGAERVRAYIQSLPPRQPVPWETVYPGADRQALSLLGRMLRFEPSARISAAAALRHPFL

In the case of `O=C(c1ccc(OC(F)(F)F)cc1)N1CCC(c2c[nH]c3ncc(C4CCCCC4)nc23)CC1` [Example 8, [4-(2-Cyclohexyl-5H-pyrrolo[2,3-b]pyrazin-7-yl)-1-piperidyl]-[4-(trifluoromethoxy)phenyl]methanone], the results for the IC50 (in assay [1]; against Cellular ERK5 Activity) were 25900 nM and 226 nM, respectively.
On the same counts, the results for `Nc1cc(OC(F)(F)F)ccc1C(=O)N1CCC(c2c[nH]c3ncc(C4CCCCC4)nc23)CC1` [Example 9, [2-Amino-4-(trifluoromethoxy)phenyl]-[4-(2-cyclohexyl-5H-pyrrolo[2,3-b]pyrazin-7-yl)-1-piperidyl]methanone] are 2150 nM and 156 nM.
On the same counts, the results for `Nc1cc(OC(F)(F)F)ccc1C(=O)N1CCC(c2c[nH]c3ncc(C4CCN(C5CC5)CC4)nc23)CC1` [Example 10, [2-Amino-4-(trifluoromethoxy)phenyl]-[4-[2-(1-cyclopropyl-4-piperidyl)-5H-pyrrolo[2,3-b]pyrazin-7-yl]-1-piperidyl]methanone] are 23 nM and 28 nM.
The like results for `O=C(c1ccc(OC(F)(F)F)cc1)N1CCC(c2c[nH]c3ncc(C4CCN(C5CC5)CC4)nc23)CC1` [Example 11, [4-[2-(1-Cyclopropyl-4-piperidyl)-5H-pyrrolo[2,3-b]pyrazin-7-yl]-1-piperidyl]-[4-(trifluoromethoxy)phenyl]methanone] were, in that order, 76 nM and 112 nM.
Turning to `CN1CCC(c2cnc3[nH]cc(C4CCN(C(=O)c5ccc(S(F)(F)(F)(F)F)cc5)CC4)c3n2)CC1` [Example 15, [4-[2-(1-Methyl-4-piperidyl)-5H-pyrrolo[2,3-b]pyrazin-7-yl]-1-piperidyl]-[4-(pentafluoro-λ^6-sulfanyl)phenyl]methanone], the IC50 in assay [1] was found to be 98 nM; at Cellular ERK5 Activity it was 96 nM.
The like results for `CN1CCC(c2cnc3[nH]cc(C4CCN(C(=O)c5ccc(S(F)(F)(F)(F)F)cc5N)CC4)c3n2)CC1` [Example 16, [2-Amino-4-(pentafluoro-λ^6-sulfanyl)phenyl]-[4-[2-(1-methyl-4-piperidyl)-5H-pyrrolo[2,3-b]pyrazin-7-yl]-1-piperidyl]methanone] were, in that order, 38 nM and 25 nM.
The like results for `O=C(c1ccc(S(F)(F)(F)(F)F)cc1)N1CCC(c2c[nH]c3ncc(C4CCOCC4)nc23)CC1` [Example 17, [4-(pentafluoro-λ^6-sulfanyl)phenyl]-[4-(2-tetrahydropyran-4-yl-5H-pyrrolo[2,3-b]pyrazin-7-yl)-1-piperidyl]methanone] were, in that order, 578 nM and 140 nM.
Consider `Nc1cc(S(F)(F)(F)(F)F)ccc1C(=O)N1CCC(c2c[nH]c3ncc(C4CCOCC4)nc23)CC1` [Example 18, [2-Amino-4-(pentafluoro-λ^6-sulfanyl)phenyl]-[4-(2-tetrahydropyran-4-yl-5H-pyrrolo[2,3-b]pyrazin-7-yl)-1-piperidyl]methanone], for which the IC50 in assay [1] came out at 330 nM; on Cellular ERK5 Activity it was 34 nM.
The like results for `Nc1cc(S(F)(F)(F)(F)F)ccc1C(=O)N1CCC(c2c[nH]c3ncc(C4CCN(C5CC5)CC4)nc23)CC1` [Example 19, [2-Amino-4-(pentafluoro-λ^6-sulfanyl)phenyl]-[4-[2-(1-cyclopropyl-4-piperidyl)-5H-pyrrolo[2,3-b]pyrazin-7-yl]-1-piperidyl]methanone] were, in that order, 176 nM and 94 nM.
On the same counts, the results for `O=C(c1ccc(S(F)(F)(F)(F)F)cc1)N1CCC(c2c[nH]c3ncc(C4CCN(C5CC5)CC4)nc23)CC1` [Example 20, [4-[2-(1-Cyclopropyl-4-piperidyl)-5H-pyrrolo[2,3-b]pyrazin-7-yl]-1-piperidyl]-[4-(pentafluoro-λ^6-sulfanyl)phenyl]methanone] are 282 nM and 201 nM.
On to `O=C(c1ccc(OC2CC2)cc1)N1CCC(c2c[nH]c3ncc(C4CCOCC4)nc23)CC1` [Example 21, [4-(Cyclopropoxy)phenyl]-[4-(2-tetrahydropyran-4-yl-5H-pyrrolo[2,3-b]pyrazin-7-yl)-1-piperidyl]methanone], for which the IC50 came out at 359 nM in assay [1] and 352 nM at Cellular ERK5 Activity.
On the same counts, the results for `O=C(c1ccc(C(F)(F)C(F)(F)F)cc1)N1CCC(c2c[nH]c3ncc(C4CCOCC4)nc23)CC1` [Example 22, [4-(1,1,2,2,2-Pentafluoroethyl)phenyl]-[4-(2-tetrahydropyran-4-yl-5H-pyrrolo[2,3-b]pyrazin-7-yl)-1-piperidyl]methanone] are 1140 nM and 279 nM.
Take `O=C(C1CCCCC1)N1CCC(c2c[nH]c3ncc(C4CCOCC4)nc23)CC1` [Example 23, Cyclohexyl-[4-(2-tetrahydropyran-4-yl-5H-pyrrolo[2,3-b]pyrazin-7-yl)-1-piperidyl]methanone]: the IC50 in assay [1] is 13300 nM; on Cellular ERK5 Activity, 4800 nM.
Regarding `O=C(c1ccc(S(F)(F)(F)(F)F)cc1F)N1CCC(c2c[nH]c3ncc(C4CCOCC4)nc23)CC1` [Example 26, [2-Fluoro-4-(pentafluoro-λ^6-sulfanyl)phenyl]-[4-(2-tetrahydropyran-4-yl-5H-pyrrolo[2,3-b]pyrazin-7-yl)-1-piperidyl]methanone], the half-inhibitory concentration (IC50) came to 624 nM in assay [1] and 149 nM at Cellular ERK5 Activity.
The like results for `Nc1cc(OC(F)(F)F)ccc1C(=O)N1CCC(c2c[nH]c3ncc(NC4COC4)nc23)CC1` [Example 27, [2-amino-4-(trifluoromethoxy)phenyl]-[4-[2-(oxetan-3-ylamino)-5H-pyrrolo[2,3-b]pyrazin-7-yl]-1-piperidyl]methanone] were, in that order, 5560 nM and 5430 nM.
The like results for `Nc1cc(OC(F)(F)F)ccc1C(=O)N1CCC(c2c[nH]c3ncc(O[C@@H]4CCOC4)nc23)CC1` [Example 28, [2-amino-4-(trifluoromethoxy)phenyl]-[4-[2-[(3R)-tetrahydrofuran-3-yl]oxy-5H-pyrrolo[2,3-b]pyrazin-7-yl]-1-piperidyl]methanone] were, in that order, 405 nM and 190 nM.
On the same counts, the results for `Nc1cc(OC(F)(F)F)ccc1C(=O)N1CCC(c2c[nH]c3ncc(O[C@H]4CCOC4)nc23)CC1` [Example 29, [2-amino-4-(trifluoromethoxy)phenyl]-[4-[2-[(3S)-tetrahydrofuran-3-yl]oxy-5H-pyrrolo[2,3-b]pyrazin-7-yl]-1-piperidyl]methanone] are 399 nM and 215 nM.
Consider `CN1CCN(c2cnc3[nH]cc(C4CCN(C(=O)c5ccc(OC(F)(F)F)cc5)CC4)c3n2)CC1` [Example 31, [4-[2-(4-methylpiperazin-1-yl)-5H-pyrrolo[2,3-b]pyrazin-7-yl]-1-piperidyl]-[4-(trifluoromethoxy)phenyl]methanone, formic acid], for which the IC50 in assay [1] was 189 nM; against Cellular ERK5 Activity, 86 nM.
On the same counts, the results for `O=C(c1ccc(OC(F)(F)F)cc1)N1CCC(c2c[nH]c3ncc(NC4CCOCC4)nc23)CC1` [Example 38, [4-[2-(tetrahydropyran-4-ylamino)-5H-pyrrolo[2,3-b]pyrazin-7-yl]-1-piperidyl]-[4-(trifluoromethoxy)phenyl]methanone] are 993 nM and 166 nM.
The like results for `Nc1cc(OC(F)(F)F)ccc1C(=O)N1CCC(c2c[nH]c3ncc(NC4CCOCC4)nc23)CC1` [Example 39, [2-amino-4-(trifluoromethoxy)phenyl]-[4-[2-(tetrahydropyran-4-ylamino)-5H-pyrrolo[2,3-b]pyrazin-7-yl]-1-piperidyl]methanone] were, in that order, 307 nM and 37 nM.
The like results for `O=C(c1ccc(OC(F)(F)F)cc1)N1CCC(c2c[nH]c3ncc(N4CCOCC4)nc23)CC1` [Example 40, [4-(2-morpholino-5H-pyrrolo[2,3-b]pyrazin-7-yl)-1-piperidyl]-[4-(trifluoromethoxy)phenyl]methanone] were, in that order, 1010 nM and 180 nM.

As a reminder, the IC50 is the midpoint of a concentration-inhibition curve. A higher IC50 goes with lower potency.
